Assay results reported in BigSolDB 2.1.

CC1=C(/C=C/C(C)=C/C=C/C(C)=C/C=C/C=C(C)/C=C/C=C(C)/C=C/C2=C(C)C(=O)CCC2(C)C)C(C)(C)CCC1=O
solubility (mole fraction)
Conditions	293.15 K	298.15 K	303.15 K	308.15 K	313.15 K	318.15 K	323.15 K	333.15 K	343.15 K
in acetone	1.95e-05	2.45e-05	3.1e-05	3.72e-05	4.22e-05	4.94e-05	–	–	–
in cyclohexane	1.27e-05	–	1.33e-05	–	1.38e-05	–	1.48e-05	1.71e-05	2.06e-05
in ethanol	4.5e-06	–	5.6e-06	–	6.35e-06	–	7.48e-06	8.72e-06	9.9e-06
in ethyl acetate	2.71e-05	–	3.67e-05	–	5.43e-05	–	8.58e-05	0.000144	0.000256
in methanol	2.61e-06	–	2.93e-06	–	3.27e-06	–	3.77e-06	4.53e-06	–
in toluene	0.000118	–	0.000146	–	0.000171	–	0.00019	0.000202	0.000208
